Results: US20090253692A1, “CRYSTALLINE FORM OF N-[[4-FLUORO-2-(5-METHYL-1H-1,2,4-TRIAZOL-1-YL)PHENYL]METHYL]-4,6,7,9-TETRAHYDRO-3-HYDROXY-9,9-DIMETHYL-4-OXO-PYRIMIDO[2,1-C][1,4]OXAZINE-2-CARBOXAMIDE, SODIUM SALT MONOHYDRATE” (Bristol-Myers Squibb Company, priority 2008, published 2009)
“Also recorded” adds a separate entry of the source. Where two headings read alike, the source gives them in different places.

Legend:
[1] = Dust hazard analysis: ignition sensitivity of dust cloud; assay type: physicochemical; conditions: for Susceptibility to ignition as a dust cloud: result in words
Text: (§1) “μm” means micrometer. “gm” means gram. “cc” means cubic centimeter. “gm/cc” means gram per cubic centimeter. “Kst” is the deflagration index of a dust expressed in bar-meter per second. “bar-m/s” means bar meter per sec. “bar/s” means bar per second. “mJ” means millijoules. “St” is the geneal classification designation for explosible dusts: “St-2” is classified as a strong explosion designation and has Kst>200 bar-m/sec; “St-1” is not classified as a strong explosion and has Kst<200 bar-m/sec.
(§2) Twenty liter sphere testing (see Proust, C.; Accorsi, A.; Dupont, L. Journal of Loss prevention in the Process Industries, vol. 20, 2007.) places the sample in the St-2 (strong explosion) class with a Kst value of 238 bar-m/s.
(§3) Therefore, twenty liter sphere testing was not required.

[2] = Dust hazard analysis: explosion severity (twenty liter sphere testing), Kst and St classification; assay type: physicochemical; conditions: for Explosion Severity (Max Pressure) / Explosion Severity (Max rate): dust explosion risk; for St Classification: general classification designation for explosible dusts
Text: as §1, §2, §3

[3] = Dust hazard analysis: charge decay time estimation; assay type: physicochemical
[4] = Particle size analysis using an Aerosizer instrument; assay type: physicochemical
Bulk and true densities = assay type: physicochemical
[5] = Moisture content by weight loss in vacuum oven; assay type: physicochemical; conditions: 5 gm in a vacuum oven at 60° C. for six hours
Method: Particle analysis. […] The sample was checked for moisture content by placing 5 gm in a vacuum oven at 60° C. for six hours and checking weight loss. The free acid lost 0.22% of its initial weight. […] The sample was checked for moisture content by placing 5 gm in a vacuum oven at 60° C. for six hours and checking weight loss. The salt monohydrate lost 0.18% of its initial weight.

HIV integrase = HIV integrase (Human immunodeficiency virus type 1 group M subtype B, UniProt P04585); conditions: result in words, see U.S. Pat. No. 7,176,196, sodium salt monohydrate, cited from earlier work

Structure (SMILES)	Minimum Ignition Energy ([1]; dust explosion risk) [mJ]	Minimum Ignition Temperature ([1]; dust explosion risk) [°C]	Susceptibility to ignition as a dust cloud [1]	Explosion Severity (Max Pressure) [2] [bar]	Explosion Severity (Max rate) [2] [bar/s]	St Classification [2]	Explosion characteristics ([2]; result in words)	Charge Decay Time Estimation [3] [min]	Particle size, 95% of sample below [4] [μm]	Particle size, mean value [4] [μm]	Bulk density (Bulk and true densities) [gm/cc]	True density (Bulk and true densities) [gm/cc]	Moisture content: loss of initial weight [5] [%]	Binding to and antagonism / inhibition of HIV integrase (HIV integrase; listed as Compound I)	Binding to and antagonism / inhibition of HIV integrase (HIV integrase)	Kst value ([2]; deflagration index of a dust) [bar · m/s]	Kst value ([2]; twenty liter sphere testing) [bar-m/s]
Cc1ncnn1-c1cc(F)ccc1CNC(=O)c1nc2n(c(=O)c1[O-])CCOC2(C)C.[Na+] [Compound (I), N-[[4-fluoro-2-(5-methyl-1H-1,2,4-triazol-1-yl)phenyl]methyl]-4,6,7,9-tetrahydro-3-hydroxy-9,9-dimethyl-4-oxo-pyrimido[2,1-c][1,4]oxazine-2-carboxamide, sodium salt monohydrate]	>500	>600	low susceptibility to ignition as a dust cloud	1.5	154	St-1 (“St-1” is not classified as a strong explosion and has Kst<200 bar-m/sec)	weak to moderate explosion characteristics	33	< 33.6	14.8	0.42	1.53	0.18	demonstrated inhibition of HIV integrase	potently bind to and act as an antagonist to HIV integrase		
Cc1ncnn1-c1cc(F)ccc1CNC(=O)c1nc2n(c(=O)c1O)CCOC2(C)C [Free acid]			extremely susceptible to igniting as a dust cloud; also recorded: high susceptibility to ignition and risk for explosion	8.2	878	St-2 (“St-2” is classified as a strong explosion designation and has Kst>200 bar-m/sec)		330	< 32.9	16.3	0.34	1.40	0.22			238	238
